Data published in patent publication US9809626B2, “Antibacterial agents: salinamide derivatives” (priority 2012, dated 2017).
Converted amounts (≈) assume the structure as drawn. Like-named read-outs stand apart in the source and are kept apart here. Numbered stars: 1 amine (or outer) side, 2 acyl side, 3 side chain; on linkers, the order of the positions; unused ones are H or OH. Bridge positions count the residues as written; N and C are the ends. Square brackets hold non-standard residues; d marks the D form. Peptide text beside a SMILES is read from it. * marks the point of attachment. X7 = C[C@@H](Oc1ccc([C@H](N[*:1])C(=O)[*:2])cc1)[C@](O)(/C=C/C(=O)[*:3])CNCCCCCCNC(=O)OC(C)(C)C; X6 = C[C@@H](Oc1ccc([C@H](N[*:1])C(=O)[*:2])cc1)[C@](O)(/C=C/C(=O)[*:3])CNCCCNC(=O)OC(C)(C)C; X4 = CCCCOC[C@@](O)(/C=C/C(=O)[*:3])[C@@H](C)Oc1ccc([C@H](N[*:1])C(=O)[*:2])cc1; X2 = C[C@@H](Oc1ccc([C@H](N[*:1])C(=O)[*:2])cc1)[C@](O)(/C=C/C(=O)[*:3])CBr; X5 = C[C@@H](Oc1ccc([C@H](N[*:1])C(=O)[*:2])cc1)[C@](O)(/C=C/C(=O)[*:3])CO; Pentanoyl(2R-Me,3R-OH,4-Me) = CC(C)[C@@H](O)[C@@H](C)C(=O)*; d(aIle) = CC[C@H](C)[C@@H](N)C(=O)O; d(aThr) = C[C@@H](O)[C@@H](N)C(=O)O; NMeF = CN[C@@H](Cc1ccccc1)C(=O)O

Legend:
Sal-resistant mutants [1] = conditions: Ebright et al., WO/2012/129173; cited from earlier work
[2] = target: Escherichia coli RNAP σ70 holoenzyme (Escherichia coli, UniProt P0A8T7+P0A8V2); assay: Fluorescence-detected RNAP assay, Escherichia coli RNAP; format: biochemical; conditions: refers to Table 1
Experimental: Fluorescence-detected RNAP assays with Escherichia coli RNAP were performed by a modification of the procedure of Kuhlman et al., Anal. Biochem. 324:183-190, 2004]. Reaction mixtures contained (20 μl): 0-100 nM test compound, 75 nM Escherichia coli RNAP σ^70 holoenzyme, 20 nM 384 bp DNA fragment containing the bacteriophage T4 N25 promoter, 100 μM ATP, 100 μM GTP, 100 μM UTP, 100 μM CTP, 50 mM Tris-HCl, pH 8.0, 100 mM KCl, 10 mM MgCl2, 1 mM DTT, 10 μg/ml bovine serum albumin, and 5.5% glycerol. Reaction components other than DNA and NTPs were pre-incubated for 10 min at 37° C. Reactions were carried out by addition of DNA and incubation for 5 min at 37° C., followed by addition of NTPs and incubation for 60 min at 37° C. DNA was removed by addition of 1 μl 5 mM CaCl2 and 2 U DNasel (Ambion, Inc.), followed by incubation for 90 min at 37° C. RNA was quantified by addition of 100 μl RiboGreen RNA Quantitation Reagent (Invitrogen, Inc.; 1:500 dilution in Tris-HCl, pH 8.0, 1 mM EDTA), followed by incubation for 10 min at 25° C., followed by measurement of fluorescence intensity [excitation wavelength=485 nm and emission wavelength=535 nm; QuantaMaster QM1 spectrofluorometer (PTI, Inc.)].
(§1) Half-maximal inhibitory concentrations (IC50s) were calculated by non-linear regression in SigmaPlot (SPSS, Inc.).

[3] = test system: Vero E6 cells (ATCC CRL1586); assay: Cytotoxicity to mammalian cells in culture (CellTiter96 assay); format: cell-based
Source text: MICs for mammalian cells (Vero E6) in culture were quantified using CellTiter96 assay (Promega. Inc.; procedures as specified by the manufacturer).

[4] = test system: human RNAP I, II, and III; assay: Radiochemical assay with human RNAP I, II, and III (HeLaScribe Nuclear Extract); format: biochemical
Experimental: Radiochemical assays with human RNAP I, II, and III were performed essentially as described [Sawadogo and Roeder, Cell 43:165-75, 1985]. Reaction mixtures contained (20 μl): 0-100 μM test compound, 8 U HeLaScribe Nuclear Extract (Promega, Inc.), 1 μg human placental DNA (Sigma-Aldrich), 400 μM ATP, 400 μM [α^32P]UTP (0.11 Bq/fmol), 400 μM CTP, 400 μM GTP, 50 mM Tris-HCl, pH 8.0, 7 mM HEPES-NaOH, 70 mM (NH4)2SO4, 50 mM KCl, 12 mM MgCl2, 5 mM DTT, 0.1 mM EDTA, 0.08 mM phenylmethylsulfonyl fluoride, and 16% glycerol. Reaction components other than DNA and NTPs were pre-incubated 10 min at 30° C., DNA was added and reaction mixtures were incubated 15 min at 30° C., NTPs were added and reaction mixtures were incubated 60 min at 30° C. Reaction mixtures were spotted on DE81 filter discs (Whatman, Inc.; pre-wetted with water) and incubated 1 min at room temperature. Filters were washed with 3×3 ml Na2HPO4, 2×3 ml water, and 3 ml ethanol, using a filter manifold (Hoefer, Inc.). Filters were placed in scintillation vials containing 10 ml Scintiverse BD Cocktail (Thermo Fisher, Inc.), and radioactivity was quantified by scintillation counting (LS6500; Beckman-Coulter, Inc.).
as §1

[5] = test system: Neisseria gonorrhoeae ATCC19424; assay: Antibacterial activity, broth microdilution; format: cell-based; conditions: Neisseria gonorrhoeae, ATCC19424; minimal concentration resulting in ≧50% inhibition of bacterial growth
Source text: (§2) Antibacterial activity was quantified using broth microdilution [Clinical and Laboratory Standards Institute (CLSI/NCCLS), Methods for Dilution Antimicrobial Susceptibility Tests for Bacteria That Grow Aerobically; Approved Standard, Eighth Edition. CLIS Document M07-A8 (CLIS, Wayne Pa.), 2009]. Assays with Enterobacter cloacae ATCC13047, Pseudomonas aeruginosa ATCC10145, and Escherichia coli D21f2to1C, employed a starting cell density of 2-5×10^5 cfu/ml, Mueller Hinton II cation adjusted broth (BD Biosciences, Inc.), and an air atmosphere. Assays with Haemophilus influenzae ATCC49247 and Neisseria gonorrhoeae ATCC19424 employed a starting cell density of 2-5×10^5 cfu/ml, Haemophilus Test Medium broth (Barry et al., 1993) and a 5% CO2/95% air atmosphere. MIC50 was defined as the minimal concentration resulting in ≧50% inhibition of bacterial growth.

[6] = test system: Enterobacter cloacae ATCC13047; assay: Antibacterial activity, broth microdilution; format: cell-based; conditions: Enterobacter cloacae, ATCC13047; minimal concentration resulting in ≧50% inhibition of bacterial growth; read-out: MIC50 Enterobacter cloacae ATCC 13047
Source text: as §2

[7] = test system: Escherichia coli D21f2tolC; assay: Antibacterial activity, broth microdilution; format: cell-based; conditions: for MIC50: Escherichia coli, D21F2TOLC, read-out: MIC50 Escherichia coli D21f2tolC
Source text: as §2

[8] = test system: Haemophilus influenzae ATCC49247; assay: Antibacterial activity, broth microdilution; format: cell-based; conditions: Haemophilus influenzae, ATCC49247; minimal concentration resulting in ≧50% inhibition of bacterial growth
Source text: as §2

[9] = test system: Pseudomonas aeruginosa ATCC10145; assay: Antibacterial activity, broth microdilution; format: cell-based; conditions: Pseudomonas aeruginosa, ATCC10145; minimal concentration resulting in ≧50% inhibition of bacterial growth
Source text: as §2

[10] = target: T1, Escherichia coli RNAP holoenzyme (Escherichia coli, UniProt P0A8T7+P0A8V2); assay: Radiochemical RNAP assay, Escherichia coli RNAP; format: biochemical
T1 construct: made in house
Experimental: (§3) Radiochemical RNAP assays with Escherichia coli RNAP and Staphylococcus aureus RNAP were performed as follows: Reaction mixtures contained (10 μl): 0-100 μM test compound, bacterial RNAP holoenzyme [75 nM Escherichia coli RNAP holoenzyme (prepared as in Mukhopadhyay et al., Meths. Enzymol. 371:144-159, 2003) or 75 nM Staphylococcus aureus RNAP core enzyme and 300 nM Staphylococcus aureus σ^A (prepared as in Srivastava et al., Curr. Opin. Microbiol. 14:532-543, 2011)], 20 nM DNA fragment N25-lacUV5-14 [positions −100 to −1 of the bacteriophage T5 N25 promoter followed by positions +1 to +29 of the lacUV5(+10A; +15C) promoter; prepared by PCR amplification of a synthetic nontemplate-strand oligodeoxyribonucleotide], 0.5 mM ApA, 100 μM □[α^32P]UTP (0.2 Bq/fmol), 100 μM ATP, and 100 μM GTP in TB (50 mM Tris-HCl, pH 7.9, 100 mM KCl, 10 mM MgCl2, 1 mM DTT, 100 μg/ml bovine serum albumin, and 5% glycerol). […] Products were applied to 7 M urea 15% polyacrylamide (19:1 acrylamide:bisacrylamide) slab gels (Bio-Rad), electrophoresed in TBE (90 mM Tris-borate, pH 8.0, and 2 mM EDTA), and analyzed by storage-phosphor scanning (Typhoon; GE Healthcare, Inc.).
as §1

[11] = target: T2, Staphylococcus aureus RNAP (Staphylococcus aureus, UniProt P47768+Q2G0N5); assay: Radiochemical RNAP assay, Staphylococcus aureus RNAP; format: biochemical
T2 construct: made in house
Experimental: as §3, §1

Sal-resistant mutants [12] = assay: Cross-resistance of Sal-resistant mutants to other RNAP inhibitors; format: cell-based; conditions: disclosed herein

Sequence of Escherichia coli RNAP σ70 holoenzyme (P0A8T7 whole entry, the tested form may be a part): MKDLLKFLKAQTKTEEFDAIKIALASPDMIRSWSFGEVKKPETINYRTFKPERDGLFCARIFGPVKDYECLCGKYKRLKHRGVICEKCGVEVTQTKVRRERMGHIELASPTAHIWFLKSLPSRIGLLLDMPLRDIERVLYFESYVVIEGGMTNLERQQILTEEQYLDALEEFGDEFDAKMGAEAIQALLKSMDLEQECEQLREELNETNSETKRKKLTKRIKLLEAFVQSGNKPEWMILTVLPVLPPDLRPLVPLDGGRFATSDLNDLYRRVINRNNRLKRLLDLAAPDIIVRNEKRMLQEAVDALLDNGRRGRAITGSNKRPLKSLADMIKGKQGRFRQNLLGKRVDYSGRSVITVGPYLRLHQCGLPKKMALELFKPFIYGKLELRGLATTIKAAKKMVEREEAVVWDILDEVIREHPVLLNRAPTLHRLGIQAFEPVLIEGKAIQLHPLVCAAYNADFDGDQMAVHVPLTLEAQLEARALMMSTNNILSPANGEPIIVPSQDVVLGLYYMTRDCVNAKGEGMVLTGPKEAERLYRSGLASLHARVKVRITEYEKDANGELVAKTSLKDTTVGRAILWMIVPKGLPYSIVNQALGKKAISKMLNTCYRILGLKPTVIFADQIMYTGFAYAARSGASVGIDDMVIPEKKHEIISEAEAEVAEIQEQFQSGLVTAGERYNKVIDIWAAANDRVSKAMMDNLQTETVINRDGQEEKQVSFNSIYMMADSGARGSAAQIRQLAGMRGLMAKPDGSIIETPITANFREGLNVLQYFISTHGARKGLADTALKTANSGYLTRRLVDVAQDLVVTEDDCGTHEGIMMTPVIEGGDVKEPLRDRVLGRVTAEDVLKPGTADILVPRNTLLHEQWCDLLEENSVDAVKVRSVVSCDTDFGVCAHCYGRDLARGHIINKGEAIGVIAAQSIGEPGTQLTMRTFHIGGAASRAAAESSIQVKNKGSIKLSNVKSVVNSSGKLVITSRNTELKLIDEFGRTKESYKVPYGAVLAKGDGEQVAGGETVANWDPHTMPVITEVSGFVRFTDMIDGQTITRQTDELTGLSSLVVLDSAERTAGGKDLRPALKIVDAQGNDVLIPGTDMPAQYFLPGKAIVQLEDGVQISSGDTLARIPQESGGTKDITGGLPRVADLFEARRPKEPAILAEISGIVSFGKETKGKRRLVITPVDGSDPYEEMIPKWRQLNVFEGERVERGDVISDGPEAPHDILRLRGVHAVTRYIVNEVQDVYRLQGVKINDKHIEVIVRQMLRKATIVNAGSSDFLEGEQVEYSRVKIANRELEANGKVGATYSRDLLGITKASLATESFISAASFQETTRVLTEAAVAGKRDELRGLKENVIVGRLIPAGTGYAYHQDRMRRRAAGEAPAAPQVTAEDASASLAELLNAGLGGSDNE
Sequence of Escherichia coli RNAP σ70 holoenzyme (P0A8V2 whole entry, the tested form may be a part): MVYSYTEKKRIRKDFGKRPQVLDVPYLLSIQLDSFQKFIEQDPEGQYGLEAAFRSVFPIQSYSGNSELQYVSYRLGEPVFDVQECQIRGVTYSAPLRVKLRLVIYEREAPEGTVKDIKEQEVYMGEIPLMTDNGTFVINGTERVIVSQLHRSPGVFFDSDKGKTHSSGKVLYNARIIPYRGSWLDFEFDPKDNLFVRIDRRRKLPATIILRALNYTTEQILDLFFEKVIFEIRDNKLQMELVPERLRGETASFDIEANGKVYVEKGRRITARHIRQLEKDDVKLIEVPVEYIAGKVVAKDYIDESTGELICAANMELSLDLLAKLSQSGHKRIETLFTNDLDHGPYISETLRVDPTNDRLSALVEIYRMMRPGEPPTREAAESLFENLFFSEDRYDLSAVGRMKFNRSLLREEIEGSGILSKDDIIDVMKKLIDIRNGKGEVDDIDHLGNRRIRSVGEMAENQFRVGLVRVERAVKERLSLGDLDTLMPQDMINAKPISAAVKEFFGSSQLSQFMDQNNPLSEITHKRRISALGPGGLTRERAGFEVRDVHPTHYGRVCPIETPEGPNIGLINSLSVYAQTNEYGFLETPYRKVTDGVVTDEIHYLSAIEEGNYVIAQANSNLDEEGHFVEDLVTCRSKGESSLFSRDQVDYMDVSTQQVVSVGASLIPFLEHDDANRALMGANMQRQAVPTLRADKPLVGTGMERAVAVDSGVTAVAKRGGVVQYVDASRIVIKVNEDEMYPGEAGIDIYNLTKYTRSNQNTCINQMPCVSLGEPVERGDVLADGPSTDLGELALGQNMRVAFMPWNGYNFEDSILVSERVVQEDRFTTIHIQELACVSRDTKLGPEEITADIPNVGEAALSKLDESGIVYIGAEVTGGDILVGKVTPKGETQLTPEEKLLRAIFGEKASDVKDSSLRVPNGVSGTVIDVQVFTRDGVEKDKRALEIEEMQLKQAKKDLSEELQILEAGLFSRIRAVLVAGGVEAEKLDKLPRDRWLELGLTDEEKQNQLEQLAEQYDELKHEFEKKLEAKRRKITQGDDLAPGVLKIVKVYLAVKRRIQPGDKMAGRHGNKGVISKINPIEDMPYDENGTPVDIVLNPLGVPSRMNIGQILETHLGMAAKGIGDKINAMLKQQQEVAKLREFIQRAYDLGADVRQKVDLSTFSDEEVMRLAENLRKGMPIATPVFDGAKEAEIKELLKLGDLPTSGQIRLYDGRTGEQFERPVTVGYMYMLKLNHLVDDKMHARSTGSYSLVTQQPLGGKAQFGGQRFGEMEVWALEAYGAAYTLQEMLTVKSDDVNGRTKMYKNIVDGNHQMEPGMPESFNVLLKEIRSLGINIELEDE
Sequence of Escherichia coli RNAP σ70 holoenzyme (P0A7Z4 whole entry, further chain, the tested form may be a part): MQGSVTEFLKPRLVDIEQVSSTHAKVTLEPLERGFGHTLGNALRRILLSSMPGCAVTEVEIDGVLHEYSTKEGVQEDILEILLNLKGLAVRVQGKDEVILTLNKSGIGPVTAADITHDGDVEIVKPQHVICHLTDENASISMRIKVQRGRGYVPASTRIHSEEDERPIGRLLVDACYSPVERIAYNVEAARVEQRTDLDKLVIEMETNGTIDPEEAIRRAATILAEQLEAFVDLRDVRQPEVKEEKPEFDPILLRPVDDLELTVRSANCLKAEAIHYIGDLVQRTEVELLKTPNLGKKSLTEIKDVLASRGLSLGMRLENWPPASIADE
Sequence of Escherichia coli RNAP σ70 holoenzyme (P0A800 whole entry, further chain, the tested form may be a part): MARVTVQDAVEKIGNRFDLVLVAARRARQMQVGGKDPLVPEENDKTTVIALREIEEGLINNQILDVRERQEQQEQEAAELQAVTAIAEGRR
Sequence of Escherichia coli RNAP σ70 holoenzyme (P00579 whole entry, further chain, the tested form may be a part): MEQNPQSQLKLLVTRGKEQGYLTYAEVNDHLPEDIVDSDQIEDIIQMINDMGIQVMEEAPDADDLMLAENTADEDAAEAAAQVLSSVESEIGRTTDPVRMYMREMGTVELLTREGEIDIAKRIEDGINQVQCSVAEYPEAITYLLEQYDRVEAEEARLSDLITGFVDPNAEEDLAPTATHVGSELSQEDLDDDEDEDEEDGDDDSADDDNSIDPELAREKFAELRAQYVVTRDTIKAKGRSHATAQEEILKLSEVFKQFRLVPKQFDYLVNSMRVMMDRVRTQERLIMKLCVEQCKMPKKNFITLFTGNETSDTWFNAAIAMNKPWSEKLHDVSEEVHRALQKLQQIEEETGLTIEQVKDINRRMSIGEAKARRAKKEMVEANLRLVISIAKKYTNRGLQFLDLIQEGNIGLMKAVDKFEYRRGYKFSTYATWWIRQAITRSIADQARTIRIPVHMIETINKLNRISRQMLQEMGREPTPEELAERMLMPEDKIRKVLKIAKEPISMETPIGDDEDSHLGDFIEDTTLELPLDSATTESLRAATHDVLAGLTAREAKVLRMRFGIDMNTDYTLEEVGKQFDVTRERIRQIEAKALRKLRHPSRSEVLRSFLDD

Compound	MIC50 [6]	MIC50 [7]	cross-resistance of Sal-resistant mutants with the compound (Sal-resistant mutants [12])	other results
ONC(=Nc1ccccc1)c1cccc(C(F)(F)F)c1 [CBR703]				cross-resistance of Sal-resistant mutants to the compound (Sal-resistant mutants [1]): not cross-resistant
CC[C@H](C)[C@H]1NC(=O)[C@@H](NC(=O)[C@H](C)[C@H](O)C(C)C)[C@@H](C)OC(=O)[C@@H]2COC(=O)CNC(=O)/C=C/[C@](O)(CBr)[C@@H](C)Oc3ccc(cc3)[C@H](NC1=O)C(=O)N(C)[C@@H](Cc1ccccc1)C(=O)N[C@H]([C@@H](C)O)C(=O)N2 [Sal-Br (3), Sal-Br] ({Pentanoyl(2R-Me,3R-OH,4-Me)}-T[d(aIle)][X2][NMeF][d(aThr)]S; ester 1-C; linker 3-6 via G)	1.56 µg/mL (≈ 1.42 µM)	0.049 µg/mL (≈ 0.0445 µM)		RNAP-inhibitory activity [2]: essentially full; MIC50 Vero E6 ATCC CRL1586 ([3]; Table 3): >100 µg/mL; MIC Vero E6 cells ([3]; growth of mammalian cells in culture): > 50 µg/mL; IC50 ([4]; radiochemical assay, read-out: IC50 human RNAP I, II, and III): > 100000 nM; IC50 ([4]; read-out: IC50 human RNAP I/II/III): > 100000 nM; MIC50 [5]: 1.56 µg/mL (≈ 1.42 µM); antibacterial activity ([7]; refers to Table 2 (E. coli D21f2tolC and Enterobacter cloacae)): essentially full; MIC50 [8]: 6.25 µg/mL (≈ 5.68 µM); MIC50 [9]: 50 µg/mL (≈ 45.4 µM); IC50 [10]: 780 ± 50 nM; IC50 [11]: 540 ± 40 nM
CC[C@H](C)[C@H]1NC(=O)[C@@H](NC(=O)[C@H](C)[C@H](O)C(C)C)[C@@H](C)OC(=O)[C@@H]2COC(=O)CNC(=O)/C=C/[C@](O)(CNCCCNC(=O)OC(C)(C)C)[C@@H](C)Oc3ccc(cc3)[C@H](NC1=O)C(=O)N(C)[C@@H](Cc1ccccc1)C(=O)N[C@H]([C@@H](C)O)C(=O)N2 [Sal-NH(CH2)3NHBoc (7), Sal-NH(CH2)3NHBoc] ({Pentanoyl(2R-Me,3R-OH,4-Me)}-T[d(aIle)][X6][NMeF][d(aThr)]S; ester 1-C; linker 3-6 via G)	100 µg/mL (≈ 83.7 µM)	1.56 µg/mL (≈ 1.31 µM)		
CC[C@H](C)[C@H]1NC(=O)[C@@H](NC(=O)[C@H](C)[C@H](O)C(C)C)[C@@H](C)OC(=O)[C@@H]2COC(=O)CNC(=O)/C=C/[C@](O)(CNCCCCCCNC(=O)OC(C)(C)C)[C@@H](C)Oc3ccc(cc3)[C@H](NC1=O)C(=O)N(C)[C@@H](Cc1ccccc1)C(=O)N[C@H]([C@@H](C)O)C(=O)N2 [Sal-NH(CH2)6NHBoc (9), Sal-NH(CH2)6NHBoc] ({Pentanoyl(2R-Me,3R-OH,4-Me)}-T[d(aIle)][X7][NMeF][d(aThr)]S; ester 1-C; linker 3-6 via G)	25 µg/mL (≈ 20.2 µM)	0.78 µg/mL (≈ 0.631 µM)		
CCCCOC[C@@]1(O)/C=C/C(=O)NCC(=O)OC[C@@H]2NC(=O)[C@@H]([C@@H](C)O)NC(=O)[C@H](Cc3ccccc3)N(C)C(=O)[C@@H](NC(=O)[C@@H]([C@@H](C)CC)NC(=O)[C@@H](NC(=O)[C@H](C)[C@H](O)C(C)C)[C@@H](C)OC2=O)c2ccc(cc2)O[C@@H]1C [Sal-OBu A (5A), Sal-OBu A] ({Pentanoyl(2R-Me,3R-OH,4-Me)}-T[d(aIle)][X4][NMeF][d(aThr)]S; ester 1-C; linker 3-6 via G)	12.5 µg/mL (≈ 11.4 µM)	1.56 µg/mL (≈ 1.43 µM)		
CC[C@H](C)[C@H]1NC(=O)[C@@H](NC(=O)[C@H](C)[C@H](O)C(C)C)[C@@H](C)OC(=O)[C@@H]2COC(=O)CNC(=O)/C=C/[C@](O)(CO)[C@@H](C)Oc3ccc(cc3)[C@H](NC1=O)C(=O)N(C)[C@@H](Cc1ccccc1)C(=O)N[C@H]([C@@H](C)O)C(=O)N2 [Sal-OH (4), Sal-OH] ({Pentanoyl(2R-Me,3R-OH,4-Me)}-T[d(aIle)][X5][NMeF][d(aThr)]S; ester 1-C; linker 3-6 via G)	25 µg/mL (≈ 24.1 µM)	0.78 µg/mL (≈ 0.751 µM)		
CNC(=O)[C@@H](C)[C@H]1C(=O)/C(=C(O)/C=C/C(C)=C/[C@@H](C)[C@H]2O[C@@]3(C)O[C@H](C=C[C@@]34CO4)[C@@H]2C)C(=O)N1[C@@H]1CC[C@H](O)[C@H](C)O1 [streptolydigin]			do not exhibit cross-resistance	
lipiarmycin			do not exhibit cross-resistance	
myxopyronin			do not exhibit cross-resistance	
